Reference: publication PMC10266688 (PLOS ONE, 2023)
Read-outs that look alike come from different tables or passages of the source.

How the values were obtained:
[1] = tested on: TOV21G and ES2 cells; assay: Annexin V apoptosis assay; conditions: 12 h
[2] = Single dose pharmacokinetics in CD1 mice (IV, IP, PO), plasma LC-MS/MS; type: in vivo, mouse; conditions: for Plasma concentration: individual (Group A)
Method: For single dose pharmacokinetic studies, plasma samples (40 μL) were mixed with 200 μL of a water-methanol mixture 1:9, v/v containing the internal standard elacridar at 400 ng/mL. After mixing by pipetting and centrifuging for 4 min at 6000 rpm, 1 μL of each supernatant was injected into LC-MS/MS system. […] Mobile phase A was acetonitrile/water (5:95, v/v) containing 1% formic acid, and mobile phase B was acetonitrile containing 0.1% formic acid. The gradient was initiated with mobile phase B at 15% and was held at 15% for 0.9 minutes with a flow rate of 0.4 mL/min, then increased to 100% and held for 0.1 minutes, and finally returned back to 15% mobile phase B and allowed to equilibrate until 2.2 minutes. […] The lower limit of quantitation (LLOQ) in plasma was 50 ng/mL.
Pharmacokinetic parameters were calculated from mean concentration-time data using non-compartmental methods in Phoenix WinNonlin version 8.3 (Certara, Princeton, NJ). Concentrations after the time 0 sample that were below the LLOQ were imputed with ½ that value. Any concentration that was determined to be an outlier by the Grubbs’s outlier test were excluded from analysis. The maximum plasma concentration (Cmax) and time to Cmax (Tmax) were the observed values. The AUClast was calculated using the log-linear trapezoidal method. AUC was extrapolated to infinity (AUCINF) by dividing the last quantifiable concentration by the terminal disposition rate constant (λz). The λz was determined from at least 3 points on the slope of the terminal phase of the concentration-time profile. The terminal half-life (T1/2) was determined by dividing 0.693 by λz. Apparent clearance (Cl/F) was calculated by dividing the dose administered by AUCINF. Apparent volume of distribution (V/F) was calculated by dividing Cl/F by λz. […] The oral and IP bioavailability was calculated as: F(%)={DoseIV×AUC(0−∞)PO/DosePO×AUC(0−∞)IV}.100%
The Method of Bailer was used to estimate the variance of AUC given the calculated variance of the mean concentration at each time point. […]. In all cases, p < 0.05 was considered statistically significant.
This was followed by a more detailed pharmacokinetic study, in which CD1 (n = 4; […]. Nine time points for IV and IP (5, 15, 30, 60, 120, 240, 360, 480 and 1440 min) and eight time points for PO (15, 30, 60,120, 240, 360, 480 and 1440 min) administration were set for this pharmacokinetic study. Each of the time point treatment group included 4 animals. Mice were injected IP with 2,2,2-tribromoethanol (150 mg/kg) prior to drawing the blood in microtainers containing K3EDTA via retro-orbital bleeding. Blood samples were centrifuged 10 min at 3000 rpm. Brain samples (right lobe) were collected and weighted. All samples were immediately processed, flash-frozen and stored at -70°C until subsequent analysis. […] Pharmacokinetic parameters were calculated from mean concentration-time data using non-compartmental methods in Phoenix WinNonlin version 8.3 (Certara, Princeton, NJ)). Using the Method of Bailer, there was no different in dose normalized AUClast by any route of administration (S17 Table).

[3] = Plasma stability, human EDTA plasma; type: in vitro ADME; conditions: for % Drug Remaining, Plasma (Human EDTA): 10 μM, 37°C
[4] = CD-1, mouse, in vivo, ip, 20 mg/kg, Plasma concentration
[5] = CD-1, mouse, in vivo, ip, 20 mg/kg, Plasma concentration, Mean
[6] = male CD1 mice, IV 5 mg/kg, 0 min
[7] = male, CD1, mouse, in vivo, ip, 20 mg/kg
[8] = male, CD1, mouse, in vivo, iv, 5 mg/kg
[9] = male, CD1, mouse, in vivo, iv, 5 mg/kg, Plasma concentration
[10] = male, CD1, mouse, in vivo, iv, 5 mg/kg, Plasma concentration, Mean
[11] = male, CD1, mouse, in vivo, po, 50 mg/kg
[12] = male, CD-1, mouse, in vivo, po, 50 mg/kg, Plasma concentration
[13] = male, CD-1, mouse, in vivo, po, 50 mg/kg, Plasma concentration, Mean

## N#Cc1ccc(/C=C2/C(=O)/C(=C/c3ccc(C#N)cc3)C23CCNCC3)cc1 [Up284]
[1]
  apoptosis, Up284 in combination with cisplatin: no indication of synergy
[2]; CD1, mouse, in vivo
  time to clear from the bloodstream to a low steady state: 2 to 4 h
[2]; [4]
  concentration at 15 min: 2480 ng/mL
  concentration at 60 min: 2400 ng/mL
  concentration at 120 min: 1950 ng/mL
  concentration at 240 min: 1540 ng/mL
  concentration at 1440 min: 750 ng/mL
[2]; [5]
  concentration at 5 min: 899 ng/mL
  concentration at 15 min: 2180 ng/mL
  concentration at 30 min: 2460 ng/mL
  concentration at 60 min: 2400 ng/mL
  concentration at 120 min: 2140 ng/mL
  concentration at 240 min: 1740 ng/mL
  concentration at 360 min: 789 ng/mL
  concentration at 480 min: 731 ng/mL
  concentration at 1440 min: 610 ng/mL
[2]; CD-1 mice, IP 20 mg/kg, 0 min
  Plasma concentration, Mean: BQL
  Plasma concentration: BQL
[2]; CD-1 mice, PO 50 mg/kg, 0 min
  Plasma concentration, Mean: BQL
  Plasma concentration: BQL
[2]; IV 5, IP 20, PO 50 mg/kg
  adverse effects during PK study: No obvious adverse effects
[2]; Method of Bailer
  dose normalized AUClast by route of administration: no different
[2]; [6]
  Plasma concentration, Mean: BQL
  Plasma concentration: BQL
[2]; male CD1 mice, IV 5 mg/kg, 1440 min, class symbol
  Plasma concentration: BQL
[2]; [7]
  AUC(0-inf): 69500 ng·h/mL
  AUC(0-t): 23000 ng·h/mL
  Cmax: 2460 ng/mL
  Tmax: 0.5 h
  bioavailability: 78%
  half-life: 52.8 h
  k el: 3.65e-06 s⁻¹
[2]; [8]
  AUC(0-inf): 9770 ng·h/mL
  AUC(0-t): 6580 ng·h/mL
  Cmax: 1510 ng/mL
  Vd: 10 L/kg
  half-life: 19 h
  k el: 1.01e-05 s⁻¹
[2]; [9]
  concentration at 5 min: 1620 ng/mL
  concentration at 15 min: 1500 ng/mL
  concentration at 30 min: 1530 ng/mL
  concentration at 60 min: 793 ng/mL
  concentration at 120 min: 670 ng/mL
  concentration at 240 min: 504 ng/mL
  concentration at 360 min: 256 ng/mL
[2]; [10]
  concentration at 5 min: 1450 ng/mL
  concentration at 15 min: 1510 ng/mL
  concentration at 30 min: 1260 ng/mL
  concentration at 60 min: 800 ng/mL
  concentration at 120 min: 669 ng/mL
  concentration at 240 min: 421 ng/mL
  concentration at 360 min: 238 ng/mL
  concentration at 480 min: 190 ng/mL
  concentration at 1440 min: 116 ng/mL
[2]; [11]
  AUC(0-inf): 22800 ng·h/mL
  AUC(0-t): 15100 ng·h/mL
  Cmax: 1830 ng/mL
  Tmax: 0.25 h
  bioavailability: 23%
  half-life: 12.7 h
  k el: 1.51e-05 s⁻¹
[2]; [12]
  concentration at 30 min: 1460 ng/mL
  concentration at 60 min: 1560 ng/mL
  concentration at 120 min: 1650 ng/mL
  concentration at 360 min: 318 ng/mL
[2]; [13]
  concentration at 15 min: 1830 ng/mL
  concentration at 30 min: 1280 ng/mL
  concentration at 60 min: 1430 ng/mL
  concentration at 120 min: 1220 ng/mL
  concentration at 240 min: 798 ng/mL
  concentration at 360 min: 473 ng/mL
  concentration at 480 min: 589 ng/mL
  concentration at 1440 min: 425 ng/mL
[2]; male, mouse, in vivo, CD-1 mice, PO 50 mg/kg, 240 min, individual (Groups A-D), read-out: Plasma concentration
  concentration at 240 min: 366 ng/mL
[2]; male, mouse, in vivo, CD-1 mice, PO 50 mg/kg, 480 min, individual (Groups A-D), read-out: Plasma concentration
  concentration at 480 min: 376 ng/mL
[2]; mouse, in vivo, CD-1 mice, IP 20 mg/kg, 5 min, individual (Groups A-D), read-out: Plasma concentration
  concentration at 5 min: 1060 ng/mL
[2]; mouse, plasma, intraperitoneal, CD1 mice, IP 20 mg/kg vs IV 5 mg/kg, read-out: IP bioavailability
  bioavailability: 87%
[2]; mouse, plasma, CD1 mice, PO 50 mg/kg vs IV 5 mg/kg, read-out: oral bioavailability
  bioavailability: 23%
[3]; 0 min
  % Drug Remaining, Plasma (Human EDTA): 100%
[3]; 30 min
  % Drug Remaining, Plasma (Human EDTA): 100%
[3]; 60 min
  % Drug Remaining, Plasma (Human EDTA): 90%
[3]; after incubating for 1 hour
  degradation in human plasma: < 10%
